According to BindingDB's records for doi:10.1021/jm049161u (Pfizer, 2006):

What was measured:
[1] = target: Peptidyl-prolyl cis-trans isomerase FKBP1A (Bos taurus, UniProt P18203); test: Peptidyl Prolyl Isomerase (PPIase) Inibition Assay
Method: (§1) It is based on the observation that chymotrypsin cleaves the C-terminal amide bond only in the trans conformer of the chromogenic substrate. The rapid hydrolysis perturbs the cis-trans conformational equilibrium, which allows one to monitor the PPIase-catalyzed cis-to-trans isomerization. […] Rate constants were generated from the absorbance versus time plots at 8-12 compound concentrations. The Kiapp was determined from the corrected rate constants using an IC50 equation or a tight-binding equation by Morrison.

[2] = target: Peptidyl-prolyl cis-trans isomerase FKBP1A (Homo sapiens, UniProt P62942); test: Peptidyl Prolyl Isomerase (PPIase) Inibition Assay; conditions: pH 8; 15 °C
Method: as §1

Peptidyl-prolyl cis-trans isomerase FKBP1A (Bos taurus, UniProt P18203), sequence (P18203 whole entry): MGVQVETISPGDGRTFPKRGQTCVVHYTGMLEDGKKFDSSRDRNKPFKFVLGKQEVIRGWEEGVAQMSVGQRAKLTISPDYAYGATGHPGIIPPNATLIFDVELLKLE
Peptidyl-prolyl cis-trans isomerase FKBP1A (Homo sapiens, UniProt P62942), sequence (P62942 whole entry): as the sequence (P18203 whole entry) above, with V50M, N95H, I99V counted along it

Ki [1] [nM]	Ki [2] [nM]	SMILES
772		COc1cc2c(c(OC)c1)C1C3CCCC(C(=O)N1CC2)N3C(=O)Nc1ccc([N+](=O)[O-])cc1 (configuration not stated) [4,6-dimethoxy-N-(4-nitrophenyl)-12-oxo-11,17-diazatetracyclo[11.3.1.0^{2,11}.0^{3,8}]heptadeca-3(8),4,6-triene-17-carboxamide]
357		COc1cc2c(c(OC)c1)C1C3CCCC(C(=O)N1CC2)N3C(=O)Nc1ccccc1OC (configuration not stated) [4,6-dimethoxy-N-(2-methoxyphenyl)-12-oxo-11,17-diazatetracyclo[11.3.1.0^{2,11}.0^{3,8}]heptadeca-3(8),4,6-triene-17-carboxamide]
	8100	COc1cc2c(c(OC)c1)C1C3CCCC(C(=O)N1CC2)N3C(=O)C(=O)c1cc(Cl)ccc1Cl (configuration not stated) [1-(2,5-dichlorophenyl)-2-{4,6-dimethoxy-12-oxo-11,17-diazatetracyclo[11.3.1.0^{2,11}.0^{3,8}]heptadeca-3(8),4,6-trien-17-yl}ethane-1,2-dione]
7000		COc1cc2c(c(OC)c1)C1C3CCCC(C(=O)N1CC2)N3C(=O)Nc1ccc(F)cc1F (configuration not stated) [N-(2,4-difluorophenyl)-4,6-dimethoxy-12-oxo-11,17-diazatetracyclo[11.3.1.0^{2,11}.0^{3,8}]heptadeca-3(8),4,6-triene-17-carboxamide]
2700		COc1cc2c(c(OC)c1)C1C3CCCC(C(=O)N1CC2)N3C(=O)Nc1ccccc1 (configuration not stated) [4,6-dimethoxy-12-oxo-N-phenyl-11,17-diazatetracyclo[11.3.1.0^{2,11}.0^{3,8}]heptadeca-3(8),4,6-triene-17-carboxamide]
330		COc1cc2c(c(OC)c1)C1C3CCCC(C(=O)N1CC2)N3C(=O)Nc1ccccc1C (configuration not stated) [4,6-dimethoxy-N-(2-methylphenyl)-12-oxo-11,17-diazatetracyclo[11.3.1.0^{2,11}.0^{3,8}]heptadeca-3(8),4,6-triene-17-carboxamide]

SMILES	Ki [1] [nM]	Ki [2] [nM]
COc1cc(OC)cc(N2C=C3C4CCCC(C(=O)N3CC2=O)N4C(=O)C(=O)c2cc(OC)c(OC)c(OC)c2)c1 (configuration not stated) [4-(3,5-dimethoxyphenyl)-13-[2-oxo-2-(3,4,5-trimethoxyphenyl)acetyl]-4,7,13-triazatricyclo[7.3.1.0^{2,7}]tridec-2-ene-5,8-dione]	54	
